Broadly, the LD50 is the dose expected to kill half of the subjects tested.

The structures appear in SMILES notation. pIC50: −log10 of the molar value. Bounds are passed on as bounds.

Here are results for 7 compounds from patent US5049551A, “5-fluorouracil, 2'-deoxy-5-fluorouridine and 1-carbomoyl-5-fluorouracil compounds” (UBE Industries, Ltd., priority 1989, dated 1991).

Data set [1] is described as follows: Acute toxicity, oral, Pharmacological test example 3. The following applies: in vivo, 7 week-old BDF2 female mouse, 21 days after administration, read-out: ID50 (LD50 from mortality). As to the method:
The compounds of the present invention obtained in Examples 4 and 7 were orally administered to 7 week-old BDF2 female mouse (10 mice per group). After 21 days from the administration, mortality of the mice was judged and LD50 value was evaluated from mortality according to the Richfield-Wilcokson method.

Data set [2] has as its system KB cell. Put plainly: Cell proliferation inhibition, KB cells, Pharmacological test example 2. The format is cell-based. The following applies: Homo sapiens, 5×10^3 planted, compound added after 24 hours, 5 days culture, read-out: IC50 (50% cell proliferation inhibiting concentration). The method, then:
To a microwell having 9 holes were planted KB cell with 5×10^3, respectively, and after 24 hours, the compound of the present invention obtained in Example 7 and 5-fluorouracil were added. After cultivating for 5 days, the number of cells were measured and from a cell proliferation inhibiting ratio-concentration curve, 50% cell proliferation inhibiting concentration (IC50 value) at which the inhibiting ratio becomes 50% was evaluated.

For data set [3] the following is noted: background; cited from earlier work.
The test system of data set [4] is KB cell. Description: Cell proliferation inhibition, KB cells, Pharmacological test example 1. It is filed as cell-based. The note with it: Homo sapiens, 2×10^4 planted, compound added after 12 hours, 5 days culture, read-out: IC50 (50% cell proliferation inhibiting concentration).

Take `CCCC(CCC)C(=O)NCC(=O)NCCCCCCNC(=O)n1cc(F)c(=O)[nH]c1=O` [Example 7, 1-[6-[N-(2-n-propyl-n-pentanoyl)glycyl]amino-n-hexylcarbamoyl]-5-fluorouracil]: the LD50 at 504 h in data set [1] is no less than 1000 mg/kg. The pIC50 in data set [2] was 6.18.
On to `C[C@H]1O[C@@H](n2cc(F)c(=O)[nH]c2=O)[C@H](O)[C@@H]1O` [Doxifluridine, 5'-deoxy-5-fluorouridine], for which the “antitumor effects compared with 5-fluorouracil” value in data set [3] is given as “inferior to that of 5-fluorouracil”.
Take `CCCC(CCC)C(=O)NCC(=O)OC[C@H]1O[C@@H](n2cc(F)c(=O)[nH]c2=O)[C@H](O)[C@@H]1OC(=O)CNC(=O)C(CCC)CCC` [Example 4, 3',5'-bis-O-[N-(2n-propyl-n-pentanoyl)-glycyl]-5-fluorouridine]: the 50% lethal dose (LD50) at 504 h in data set [1] is no less than 3000 mg/kg. Moreover, the pIC50 in data set [4] is 5.74.
The corresponding values for `CCCC(CCC)C(=O)NCC(=O)OC[C@H]1O[C@@H](n2cc(F)c(=O)[nH]c2=O)[C@H](OC(=O)CNC(=O)C(CCC)CCC)[C@@H]1OC(=O)CNC(=O)C(CCC)CCC` [Example 1, 2',3',5'-tris-O-[N-(2-n-propyl-n-pentanoyl)-glycyl]-5-fluorouridine] are no less than 5000 mg/kg and 5.70.
Consider `O=c1[nH]c(=O)n(C2CCCO2)cc1F` (centres unmarked) [Tegafur, 1-(2-tetrahydrofulyl)-5-fluorouracil], for which the “antitumor effects compared with 5-fluorouracil” value in data set [3] is “inferior to that of 5-fluorouracil”.
On to `CCCCCCNC(=O)n1cc(F)c(=O)[nH]c1=O` [Carmofur, 1-n-hexylcarbamoyl-5-fluorouracil], for which the “antitumor effects compared with 5-fluorouracil” value in data set [3] is recorded as “inferior to that of 5-fluorouracil”.
Consider `O=c1[nH]cc(F)c(=O)[nH]1` [5-Fluorouracil, 5-fluorouracil], for which, in data set [1], the LD50 at 504 h came out at 928 mg/kg. For the same compound, the pIC50 in data set [4] is 4.75; in data set [2], 6.12. For the same compound, the antitumor activity result in data set [3] was “insufficient”. Also, in data set [3], the toxicity result is recorded as “potent toxicity”.
